# Measured values from PMC11671526, “β-caryophyllene sensitizes hepatocellular carcinoma cells to chemotherapeutics and inhibits cell malignancy through targeting MAPK signaling pathway” (Frontiers in Pharmacology, 2024).
# Test system: HepG2 cells
# Assay: RNA-seq transcriptome analysis of differentially expressed genes
# Assay type: cell-based, human
# Conditions: BCP vs control HepG2
# Procedure: The quality and concentration of RNA were examined by MOPS RNA electrophoresis and Eppendorf BioSpectrometer. The transcriptome analysis was performed by BGI-Wuhan China. The RNA-seq dataset of this study is accessible in the Gene Expression Omnibus (GEO) with an access number of GSE276099. The sequence library for each sample was prepared using the BGISEQ-500 platform with a 50-bp single-end (SE50) format. […]2.2.1) was used to align the clean reads to the reference genome and alignment of the clean reads to the reference genes was carried out using Bowtie2 (v2.4.5) ([Langmead and Salzberg, 2012]; [Kim et al., 2015]). Gene expression levels were calculated by RSEM (v1.3.1) ([Li and Dewey, 2011]). Analysis of differential gene expression was performed using edgeR in the Bioconductor software package ([Robinson et al., 2010]). Using a standard protocol, the RNA samples were also examined by reverse transcription and quantitative polymerase chain reaction (RT-qPCR). In brief, for reverse transcription, total RNA (1 μg) and gDNA wiper Mix were incubated at 42°C for 2 min. The samples were immediately incubated with a master mix containing 10 pmol/μL of poly (dT) primers at 37°C for 15 min and 85°C for 5 s. To detect the expression of specific genes by qPCR analysis, gene-specific primers (shown in Supplementary Table S1) were mixed with the ChamQ Universal SYBER qPCR Master Mix and the reaction was conducted using the Roche Lightcycler 480. The GAPDH value was used to normalize the results of each gene. The RNA-seq data of BCP-treated HepG2 cells were screened for DEGs. Gene symbols were turned into Enterz ID using the org.Hs.eg.db Bio-conductor R package. The cluster profiler (v4.6.2) package was used to perform the Kyoto Encyclopedia of Genes and Genomes (KEGG) and Gene Ontology (GO) enrichment analyses ([Wu et al., 2021]). Following the Transcript per million (TPM) data of the dataset, the line chart, and heatmap were plotted using ggplot2 and pheatmap R packages, respectively.
structure (smiles),measurement,setting,value
"C=C1CC/C=C(\C)CC[C@@H]2[C@@H]1CC2(C)C [BCP, β-caryophyllene]",change EGLN3,"gene EGLN3, DEG direction",Down
same,logFC EHF,"gene EHF, RNA-seq",-2.096
same,change EHF,"gene EHF, DEG direction",Down
same,logFC EPHX1,"gene EPHX1, RNA-seq",-0.6153
same,change EPHX1,"gene EPHX1, DEG direction",Down
same,logFC ETNPPL,"gene ETNPPL, RNA-seq",-2.349
same,change ETNPPL,"gene ETNPPL, DEG direction",Down
same,logFC EVA1A,"gene EVA1A, RNA-seq",-3.085
same,change EVA1A,"gene EVA1A, DEG direction",Down
same,logFC F2RL1,"gene F2RL1, RNA-seq",-0.7544
same,change F2RL1,"gene F2RL1, DEG direction",Down
same,logFC FAH,"gene FAH, RNA-seq",0.7875
same,change FAH,"gene FAH, DEG direction",Up
same,logFC FAM13C,"gene FAM13C, RNA-seq",0.699
same,change FAM13C,"gene FAM13C, DEG direction",Up
same,logFC FAM72C,"gene FAM72C, RNA-seq",1.971
same,change FAM72C,"gene FAM72C, DEG direction",Up
same,logFC FBXO2,"gene FBXO2, RNA-seq",-0.7473
same,change FBXO2,"gene FBXO2, DEG direction",Down
same,logFC FBXO27,"gene FBXO27, RNA-seq",-1.235
same,change FBXO27,"gene FBXO27, DEG direction",Down
same,logFC FBXO44,"gene FBXO44, RNA-seq",-0.6394
same,change FBXO44,"gene FBXO44, DEG direction",Down
same,logFC FGFBP1,"gene FGFBP1, RNA-seq",-1.07
same,change FGFBP1,"gene FGFBP1, DEG direction",Down
same,logFC FRMD3,"gene FRMD3, RNA-seq",-1.073
same,change FRMD3,"gene FRMD3, DEG direction",Down
same,logFC FZD4,"gene FZD4, RNA-seq",-0.6196
same,change FZD4,"gene FZD4, DEG direction",Down
same,logFC GALNT13,"gene GALNT13, RNA-seq",1.877
same,change GALNT13,"gene GALNT13, DEG direction",Up
same,logFC GALNTL6,"gene GALNTL6, RNA-seq",1.303
same,change GALNTL6,"gene GALNTL6, DEG direction",Up
same,logFC GBP2,"gene GBP2, RNA-seq",-1.229
same,change GBP2,"gene GBP2, DEG direction",Down
same,logFC GIPR,"gene GIPR, RNA-seq",-0.7811
same,change GIPR,"gene GIPR, DEG direction",Down
same,logFC GJB5,"gene GJB5, RNA-seq",-0.706
same,change GJB5,"gene GJB5, DEG direction",Down
same,logFC GLIS3,"gene GLIS3, RNA-seq",0.614
same,change GLIS3,"gene GLIS3, DEG direction",Up
same,logFC GNAZ,"gene GNAZ, RNA-seq",-0.722
same,change GNAZ,"gene GNAZ, DEG direction",Down
same,logFC GOLGA6L10,"gene GOLGA6L10, RNA-seq",2.939
same,change GOLGA6L10,"gene GOLGA6L10, DEG direction",Up
same,logFC GPER1,"gene GPER1, RNA-seq",-0.7995
same,change GPER1,"gene GPER1, DEG direction",Down
same,logFC GPNMB,"gene GPNMB, RNA-seq",0.8482
same,change GPNMB,"gene GPNMB, DEG direction",Up
same,logFC GSDME,"gene GSDME, RNA-seq",0.7468
same,change GSDME,"gene GSDME, DEG direction",Up
same,logFC H1-2,"gene H1-2, RNA-seq",-0.7028
same,change H1-2,"gene H1-2, DEG direction",Down
same,logFC H2AC6,"gene H2AC6, RNA-seq",-0.6896
same,change H2AC6,"gene H2AC6, DEG direction",Down
same,logFC H2AC18,"gene H2AC18, RNA-seq",-0.6059
same,change H2AC18,"gene H2AC18, DEG direction",Down
same,logFC H2BC5,"gene H2BC5, RNA-seq",-0.8919
same,change H2BC5,"gene H2BC5, DEG direction",Down
same,logFC H2BC11,"gene H2BC11, RNA-seq",-0.8769
same,change H2BC11,"gene H2BC11, DEG direction",Down
same,logFC H2BC12,"gene H2BC12, RNA-seq",-0.7141
same,change H2BC12,"gene H2BC12, DEG direction",Down
same,logFC H2BC21,"gene H2BC21, RNA-seq",-0.7522
same,change H2BC21,"gene H2BC21, DEG direction",Down
same,logFC H3C14,"gene H3C14, RNA-seq",-8.816
same,change H3C14,"gene H3C14, DEG direction",Down
same,logFC H3C15,"gene H3C15, RNA-seq",8.416
same,change H3C15,"gene H3C15, DEG direction",Up
same,logFC HHLA2,"gene HHLA2, RNA-seq",-1.815
same,change HHLA2,"gene HHLA2, DEG direction",Down
same,logFC HIC1,"gene HIC1, RNA-seq",-1.286
same,change HIC1,"gene HIC1, DEG direction",Down
same,logFC HID1,"gene HID1, RNA-seq",-3.326
same,change HID1,"gene HID1, DEG direction",Down
same,logFC HJURP,"gene HJURP, RNA-seq",0.601
same,change HJURP,"gene HJURP, DEG direction",Up
same,logFC HK1,"gene HK1, RNA-seq",-0.5879
same,change HK1,"gene HK1, DEG direction",Down
same,logFC HMG20B,"gene HMG20B, RNA-seq",0.778
same,change HMG20B,"gene HMG20B, DEG direction",Up
same,logFC HMMR,"gene HMMR, RNA-seq",0.8153
same,change HMMR,"gene HMMR, DEG direction",Up
same,logFC HPDL,"gene HPDL, RNA-seq",-0.6564
same,change HPDL,"gene HPDL, DEG direction",Down
same,logFC HSPA5,"gene HSPA5, RNA-seq",0.6968
same,change HSPA5,"gene HSPA5, DEG direction",Up
same,logFC IFI35,"gene IFI35, RNA-seq",0.5837
same,change IFI35,"gene IFI35, DEG direction",Up
same,logFC IFITM1,"gene IFITM1, RNA-seq",-1.457
same,change IFITM1,"gene IFITM1, DEG direction",Down
same,logFC IL34,"gene IL34, RNA-seq",-0.7177
same,change IL34,"gene IL34, DEG direction",Down
same,logFC IQGAP3,"gene IQGAP3, RNA-seq",0.8425
same,change IQGAP3,"gene IQGAP3, DEG direction",Up
same,logFC ITPR1,"gene ITPR1, RNA-seq",0.8272
same,change ITPR1,"gene ITPR1, DEG direction",Up
same,logFC KCNH3,"gene KCNH3, RNA-seq",-0.6893
same,change KCNH3,"gene KCNH3, DEG direction",Down
same,logFC KCNJ18,"gene KCNJ18, RNA-seq",0.8616
same,change KCNJ18,"gene KCNJ18, DEG direction",Up
same,logFC KCNK3,"gene KCNK3, RNA-seq",-0.6699
same,change KCNK3,"gene KCNK3, DEG direction",Down
same,logFC KIAA1614,"gene KIAA1614, RNA-seq",0.6603
same,change KIAA1614,"gene KIAA1614, DEG direction",Up
same,logFC KLHDC7B,"gene KLHDC7B, RNA-seq",0.8443
same,change KLHDC7B,"gene KLHDC7B, DEG direction",Up
same,logFC KLRG1,"gene KLRG1, RNA-seq",-1.335
same,change KLRG1,"gene KLRG1, DEG direction",Down
same,logFC LCK,"gene LCK, RNA-seq",-3.081
same,change LCK,"gene LCK, DEG direction",Down
same,logFC LFNG,"gene LFNG, RNA-seq",-0.7084
same,change LFNG,"gene LFNG, DEG direction",Down
same,logFC LHFPL2,"gene LHFPL2, RNA-seq",-0.5801
same,change LHFPL2,"gene LHFPL2, DEG direction",Down
same,logFC LIMS3,"gene LIMS3, RNA-seq",8.319
same,change LIMS3,"gene LIMS3, DEG direction",Up
